Tests used:
Format in all cases: in vivo
[1] = test system: fall armyworm larvae (Spodoptera frugiperda); assay: whole plant or invertebrate; conditions: 168 h
In short: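 Percent kill of Spodoptera frugiperda caterpillars, read 7 days after infestation of dried, spray-treated Zea mays leaf pieces. Spray preparation: compound in acetone plus dimethylformamide, diluted with emulsifier-containing water.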

[2] = test system: adult cat fleas (Ctenocephalides felis); assay: Ctenocephalides felis in-vitro contact test, adult cat flea; conditions: 5 μg/cm^2 (=500 g/ha), after 48 hours
Experimental: Ctenocephalides felis—In-Vitro Contact Tests Adult Cat Flea
(§1) 9 mg compound is solved in 1 mL acetone and diluted with acetone to the desired concentration. 250 μL of the test solution is filled in 25 mL glass test tubes and homogeneously distributed on the inner walls by rotation and tilting on a shaking device (2 h at 30 rpm). With a compound concentration of 900 ppm, an inner surface of 44.7 cm^2 and a homogeneous distribution, a dose of 5 μg/cm^2 is achieved.
(§2) After the solvent has evaporated, each test tube is filled with 5-10 adult cat fleas (Ctenocephalides felis), closed with a perforated lid and incubated in a lying position at room temperature and relative humidity. After 48 hours efficacy is determined. The fleas are patted on the ground of the tubes and are incubated on a heating plate at 45-50° C. for at most 5 minutes. Immotile or uncoordinated moving fleas, which are not able to escape the heat by climbing upwards, are marked as dead or moribund.
An efficacy of 100% means all fleas are dead or moribund; 0% means no fleas are dead or moribund.

[3] = test system: adult brown dog ticks (Rhipicephalus sanguineus); assay: Rhipicephalus sanguineus in-vitro contact test, adult brown dog ticks; conditions: 48 h, read-out: efficacy (ticks dead or moribund)
Experimental: Rhipicephalus sanguineus—In-Vitro Contact Tests with Adult Brown Dog Ticks
as §1
as §2, with “brown dog ticks (Rhipicephalus sanguineus),” for “cat fleas (Ctenocephalides felis),”, “ticks” for “fleas”, “ticks,” for “fleas,”
An efficacy of 100% means all ticks are dead or moribund; 0% means no ticks are dead or moribund.

[4] = test system: larvae of the southern green stink bug (Nezara viridula); assay: whole plant or invertebrate; conditions: 96 h
In short: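 Percent mortality of southern green stink bug larvae was recorded at day 4, with 100% meaning all dead. The larvae were placed on barley sprayed with the test solution. That solution was prepared from acetone/dimethylformamide concentrate diluted in emulsifier-containing water (1000 ppm).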

[5] = test system: cattle tick larvae (Rhipicephalus microplus), strain Parkhurst, resistant against synthetic pyrethroids; assay: Rhipicephalus (Boophilus) microplus in-vitro contact test, larval cattle tick; conditions: 5 μg/cm^2 (=500 g/ha), after 48 hours
Experimental: Rhipicephalus (Boophilus) Microplus—In-Vitro Contact Tests Larval Cattle Tick (Strain Parkhurst, Resistant Against Synthetic Pyrethroids)
as §1
After the solvent has evaporated, each test tube is filled with 20-50 cattle tick larvae (Rhipicephalus microplus), closed with a perforated lid and incubated in a horizontal position at 85% relative humidity and 27° C. in an incubator. After 48 hours efficacy is determined. The larvae are patted on the ground of the tubes and negative geotactic behavior is recorded.
An efficacy of 100% means all larvae are dead or moribund; 0% means no larvae are dead or moribund.

[6] = test system: green peach aphid (Myzus persicae); assay: Myzus persicae spray test (MYZUPE); conditions: 120 h, 100 g/ha, after 5 days
In short: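 Percent aphid kill, with 0% meaning none killed, was read 5 days after spraying. The preparation (acetone–DMF solvent, water with 1000 ppm emulsifier) was applied to Brassica pekinensis leaf disks carrying mixed-instar green peach aphids.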

[7] = test system: larvae of the banded cucumber beetle (Diabrotica balteata); assay: Diabrotica balteata spray test; conditions: 168 h, 100 g/ha (=32 μg/well), after 7 days, read-out: efficacy (seedling growth)
In short: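 Efficacy is seedling survival after 7 days, where 0% means no seedlings grew and 100% means growth equal to untreated, uninfested controls. Wheat seedlings, germinated on agar for 1 day, were sprayed with the aqueous emulsifier dilution (acetone/DMF solvent) and then exposed to 10–20 banded cucumber beetle larvae.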

[8] = test system: brown planthopper (Nilaparvata lugens); assay: Nilaparvata lugens spray test; conditions: 96 h
Experimental: Nilaparvata lugens—Spray Test
• Solvent: 78.0 parts by weight of acetone • 1.5 parts by weight of dimethylformamide • Emulsifier: alkylarylpolyglycol ether
To produce a suitable preparation of active compound, 1 part by weight of active compound is mixed with the stated amount of solvents and is diluted with water, containing an emulsifier concentration of 1000 ppm, to the desired concentration. Further test concentrations are prepared by dilution with emulsifier containing water.
Rice plants (Oryza sativa) are sprayed with a preparation of the active ingredient of the desired concentration and the plants are infested with the brown planthopper (Nilaparvata lugens).
After 4 days mortality in % is determined. 100% means all planthoppers have been killed and 0% means none of the planthoppers have been killed.

SMILES | mortality at 100 g/ha [1] | efficacy (fleas dead or moribund) [2] | pest or weed control at 5 µg/cm2, 500 g/ha [3] | mortality at 500 g/ha [4] | efficacy (larvae dead or moribund) [5] | mortality at 100 g/ha [6] | pest or weed control at 32 µg/disc, 100 g/ha [7] | mortality at 500 g/ha [8]
C[C@H](NC(=O)c1cc(Cl)cc(OC(F)(F)F)c1)c1ncnn1-c1cc(C#N)ncn1 [I-18] | 100% | 90% | 100% | 100% | 100% | 90% | 100% | 
C[C@H](NC(=O)c1cccc(OC(F)(F)F)c1)c1ncnn1-c1cc(C(N)=O)ncn1 [I-50] | 100% | 100% | 100% |  | 100% | 90% | 100% | 100%
CNC(=O)c1cc(-n2nc(C)nc2[C@H](C)NC(=O)c2cc(Br)cc(Br)c2)ncn1 [I-52] | 100% | 100% | 100% |  | 100% |  | 100% | 
CC(C)N(C)C(=O)c1cc(-n2ncnc2[C@H](C)NC(=O)c2cc(Br)cc(OC(F)(F)F)c2)ncn1 [I-55] | 100% | 100% | 100% |  | 100% | 100% | 100% | 
CC(C)N(C)C(=O)c1cc(-n2ncnc2[C@H](C)NC(=O)c2cc(Cl)cc(OC(F)(F)F)c2)ncn1 [I-56] | 100% | 100% | 100% |  | 100% | 90% | 100% | 
CC(C)N(C)C(=O)c1cc(-n2ncnc2[C@H](C)NC(=O)c2cc(OC(F)(F)F)cc(C3CC3)c2)ncn1 [I-57] | 100% | 100% | 100% |  | 100% |  |  | 100%
CCN(C)C(=O)c1cc(-n2nc(C)nc2[C@H](C)NC(=O)c2cc(C(F)(F)F)cc(C(F)(F)F)c2)ncn1 [I-63] | 100% | 100% | 100% |  | 100% |  | 100% | 100%
CCN(C)C(=O)c1cc(-n2ncnc2[C@H](C)NC(=O)c2cc(C(F)(F)F)cc(C(F)(F)F)c2)ncn1 [I-64] | 100% | 100% | 100% | 100% | 100% | 90% | 100% | 100%
CNC(=O)c1cc(-n2nc(C)nc2[C@H](C)NC(=O)c2cc(Br)cc(OC(F)(F)F)c2)ncn1 [I-65] | 100% | 100% | 100% | 100% | 100% | 90% | 100% | 
CNC(=O)c1cc(-n2ncnc2[C@H](C)NC(=O)c2cc(OC(F)F)cc(C3CC3)c2)ncn1 [I-67] | 100% | 100% | 100% | 100% | 100% | 90% | 100% | 100%

Source: patent publication US12612386B2, “Heteroaryl-triazole compounds as pesticides” (Bayer Aktiengesellschaft, priority 2020, dated 2026)
